Test results taken from patent US20140348819A1, “Methods of Treating Cancer” (Dana-Farber Cancer Institute, Inc., priority 2011, published 2014).

Test system: six V600E BRAF melanoma cell lines
Assay: Screening of recombinant RTK ligands for ability to confer resistance to BRAFi (PLX4720) or MEKi (PD184352) (Table 4)
Format: cell-based, human
Set-up: ability of recombinant RTK ligand to confer resistance / ability of recombinant RTK ligand to confer resistance (screening value): scale not given here
Method: HGF is the only one that can substantially confer drug resistance to the cell lines.
The complexity of the tumor microenvironment is much greater than an in vitro co-culture system. Therefore, the inventors explored whether the activation of other RTKs could result in a similar resistance as that observed with the activation of MET. To this end, six V600E BRAF melanoma cell lines were tested for their resistance to either BRAFi (PLX4720) or MEKi (PD184352) after the addition of 22 RTK ligands that have the potential of activating almost all known RTKs. […] The activation of a selected subset of these RTKs was confirmed by western blotting and by high throughput tyrosine kinase phosphorylation profiling.

Question: What does the source list for neuregulin 1?
Answer: ability of recombinant RTK ligand to confer resistance (A2058, PD184352 - 1 uM, ligand 1.6 ng/ml): 1.04; ability of recombinant RTK ligand to confer resistance (A2058, PD184352 - 1 uM, ligand 6.25 ng/ml): 1.08; ability of recombinant RTK ligand to confer resistance (A2058, PD184352 - 1 uM, ligand 25 ng/ml): 1.14; ability of recombinant RTK ligand to confer resistance (A2058, PD184352 - 1 uM, ligand 100 ng/ml): 1.18; ability of recombinant RTK ligand to confer resistance (A2058, PD184352 - 1 uM, ligand 400 ng/ml): 1.27; ability of recombinant RTK ligand to confer resistance (A2058, PLX4720 - 2 uM, ligand 1.6 ng/ml): 1.05; ability of recombinant RTK ligand to confer resistance (A2058, PLX4720 - 2 uM, ligand 6.25 ng/ml): 1.07; ability of recombinant RTK ligand to confer resistance (A2058, PLX4720 - 2 uM, ligand 25 ng/ml): 1.12; ability of recombinant RTK ligand to confer resistance (A2058, PLX4720 - 2 uM, ligand 100 ng/ml): 1.09; ability of recombinant RTK ligand to confer resistance (A2058, PLX4720 - 2 uM, ligand 400 ng/ml): 1.22; ability of recombinant RTK ligand to confer resistance (C32, PD184352 - 1 uM, ligand 1.6 ng/ml): 1.12; ability of recombinant RTK ligand to confer resistance (C32, PD184352 - 1 uM, ligand 6.25 ng/ml): 1.20; ability of recombinant RTK ligand to confer resistance (C32, PD184352 - 1 uM, ligand 25 ng/ml): 1.24; ability of recombinant RTK ligand to confer resistance (C32, PD184352 - 1 uM, ligand 100 ng/ml): 1.52; ability of recombinant RTK ligand to confer resistance (C32, PD184352 - 1 uM, ligand 400 ng/ml): 1.32; ability of recombinant RTK ligand to confer resistance (C32, PLX4720 - 2 uM, ligand 1.6 ng/ml): 1.01; ability of recombinant RTK ligand to confer resistance (C32, PLX4720 - 2 uM, ligand 6.25 ng/ml): 1.07; ability of recombinant RTK ligand to confer resistance (C32, PLX4720 - 2 uM, ligand 25 ng/ml): 1.10; ability of recombinant RTK ligand to confer resistance (C32, PLX4720 - 2 uM, ligand 100 ng/ml): 1.20; ability of recombinant RTK ligand to confer resistance (C32, PLX4720 - 2 uM, ligand 400 ng/ml): 1.22; ability of recombinant RTK ligand to confer resistance (Colo 829, PD184352 - 1 uM, ligand 1.6 ng/ml): 1.10; ability of recombinant RTK ligand to confer resistance (Colo 829, PD184352 - 1 uM, ligand 6.25 ng/ml): 1.04; ability of recombinant RTK ligand to confer resistance (Colo 829, PD184352 - 1 uM, ligand 25 ng/ml): 1.11; ability of recombinant RTK ligand to confer resistance (Colo 829, PD184352 - 1 uM, ligand 100 ng/ml): 1.37; ability of recombinant RTK ligand to confer resistance (Colo 829, PD184352 - 1 uM, ligand 400 ng/ml): 1.21; ability of recombinant RTK ligand to confer resistance (Colo 829, PLX4720 - 2 uM, ligand 1.6 ng/ml): 0.03; ability of recombinant RTK ligand to confer resistance (Colo 829, PLX4720 - 2 uM, ligand 6.25 ng/ml): 0.98; ability of recombinant RTK ligand to confer resistance (Colo 829, PLX4720 - 2 uM, ligand 25 ng/ml): 1.06; ability of recombinant RTK ligand to confer resistance (Colo 829, PLX4720 - 2 uM, ligand 100 ng/ml): 1.24; ability of recombinant RTK ligand to confer resistance (Colo 829, PLX4720 - 2 uM, ligand 400 ng/ml): 1.17; ability of recombinant RTK ligand to confer resistance (G-361, PD184352 - 1 uM, ligand 1.6 ng/ml): 0.93; ability of recombinant RTK ligand to confer resistance (G-361, PD184352 - 1 uM, ligand 6.25 ng/ml): 0.96; ability of recombinant RTK ligand to confer resistance (G-361, PD184352 - 1 uM, ligand 25 ng/ml): 0.98; ability of recombinant RTK ligand to confer resistance (G-361, PD184352 - 1 uM, ligand 100 ng/ml): 1.01; ability of recombinant RTK ligand to confer resistance (G-361, PD184352 - 1 uM, ligand 400 ng/ml): 1.17; ability of recombinant RTK ligand to confer resistance (G-361, PLX4720 - 2 uM, ligand 1.6 ng/ml): 0.87; ability of recombinant RTK ligand to confer resistance (G-361, PLX4720 - 2 uM, ligand 6.25 ng/ml): 1.06; ability of recombinant RTK ligand to confer resistance (G-361, PLX4720 - 2 uM, ligand 25 ng/ml): 0.93; ability of recombinant RTK ligand to confer resistance (G-361, PLX4720 - 2 uM, ligand 100 ng/ml): 0.99; ability of recombinant RTK ligand to confer resistance (G-361, PLX4720 - 2 uM, ligand 400 ng/ml): 1.14; ability of recombinant RTK ligand to confer resistance (SK-MEL-5, PD184352 - 1 uM, ligand 1.6 ng/ml): 0.96; ability of recombinant RTK ligand to confer resistance (SK-MEL-5, PD184352 - 1 uM, ligand 6.25 ng/ml): 0.97; ability of recombinant RTK ligand to confer resistance (SK-MEL-5, PD184352 - 1 uM, ligand 25 ng/ml): 1.01; ability of recombinant RTK ligand to confer resistance (SK-MEL-5, PD184352 - 1 uM, ligand 100 ng/ml): 1.06; ability of recombinant RTK ligand to confer resistance (SK-MEL-5, PD184352 - 1 uM, ligand 400 ng/ml): 1.07; ability of recombinant RTK ligand to confer resistance (SK-MEL-5, PLX4720 - 2 uM, ligand 1.6 ng/ml): 0.94; ability of recombinant RTK ligand to confer resistance (SK-MEL-5, PLX4720 - 2 uM, ligand 6.25 ng/ml): 0.91; ability of recombinant RTK ligand to confer resistance (SK-MEL-5, PLX4720 - 2 uM, ligand 25 ng/ml): 0.98; ability of recombinant RTK ligand to confer resistance (SK-MEL-5, PLX4720 - 2 uM, ligand 100 ng/ml): 1.04; ability of recombinant RTK ligand to confer resistance (SK-MEL-5, PLX4720 - 2 uM, ligand 400 ng/ml): 0.96; ability of recombinant RTK ligand to confer resistance (SK-MEL-28, PD184352 - 1 uM, ligand 1.6 ng/ml): 1.09; ability of recombinant RTK ligand to confer resistance (SK-MEL-28, PD184352 - 1 uM, ligand 6.25 ng/ml): 1.08; ability of recombinant RTK ligand to confer resistance (SK-MEL-28, PD184352 - 1 uM, ligand 25 ng/ml): 1.05; ability of recombinant RTK ligand to confer resistance (SK-MEL-28, PD184352 - 1 uM, ligand 100 ng/ml): 1.08; ability of recombinant RTK ligand to confer resistance (SK-MEL-28, PD184352 - 1 uM, ligand 400 ng/ml): 1.22; ability of recombinant RTK ligand to confer resistance (SK-MEL-28, PLX4720 - 2 uM, ligand 1.6 ng/ml): 0.92; ability of recombinant RTK ligand to confer resistance (SK-MEL-28, PLX4720 - 2 uM, ligand 6.25 ng/ml): 1.18; ability of recombinant RTK ligand to confer resistance (SK-MEL-28, PLX4720 - 2 uM, ligand 25 ng/ml): 1.09; ability of recombinant RTK ligand to confer resistance (SK-MEL-28, PLX4720 - 2 uM, ligand 100 ng/ml): 1.09; ability of recombinant RTK ligand to confer resistance (SK-MEL-28, PLX4720 - 2 uM, ligand 400 ng/ml): 1.19
